# ChEMBL document CHEMBL2028040, “Malaria Box”
# What was measured:
# Plasmodium falciparum [1] = assay: MMV: Inhibition of Plasmodium falciparum 3D7 at 5uM compound concentration.; type: functional
# Leishmania infantum = assay: MMV: Inhibition of Leishmania infantum (MHOM/MA/BE/67) in vitro.; type: functional, organism-based
# Plasmodium falciparum [2] = assay: MMV: Inhibition of Plasmodium falciparum 3D7 (EC50).; type: functional, organism-based
# [3] = system: Trypanosoma brucei brucei; assay: MMV: Inhibition of Trypanosoma brucei brucei (Squib 427) (HAT in vitro).; type: functional, organism-based
# [4] = MMV: Cytotoxicity against human fibroblasts (MRC-5) cells.; conditions: MRC-5 cells (human fibroblasts)
# [5] = system: Trypanosoma brucei rhodesiense; assay: MMV: Inhibition of Trypanosoma brucei rhodesiense (STIB 900) (HAT in vitro).; type: functional, organism-based
# Trypanosoma cruzi = assay: MMV: Inhibition of Trypanosoma cruzi (Tulahuen C4 LacZ) (Chagas in vitro).; type: functional, organism-based
Compound,inhibition at 5 µM (Plasmodium falciparum [1]) [%],IC50 (Leishmania infantum) [µM],EC50 (Plasmodium falciparum [2]) [µM],IC50 [3] [µM],IC50 [4] [µM],IC50 [5] [µM],IC50 (Trypanosoma cruzi) [µM]
COc1ccc(/C=C2/SC(=Nc3ccccc3)NC2=O)cc1,71,> 32,0.551,> 32,11.5,16.3,> 32
CCN1CCN(Cc2ccc(NC(=O)c3cc4ccc5cccnc5c4[nH]3)cc2)CC1,70,6.35,0.361,3.78,8.47,0.928,8
Cc1ccc(-c2cc(C(=O)Nc3ccc(S(=O)(=O)N4CCCCC4)cc3)[nH]n2)c(O)c1,94,> 32,0.535,> 32,> 32,> 32,> 32
COc1cc(C(=O)Nc2ccc(-c3nc4ccccc4[nH]3)cc2)cc(OC)c1OC,95,> 32,1.22,3.37,> 32,2.54,> 32
Cc1nc2ccccc2c(O)c1CC=C(Cl)Cl,89,> 32,0.836,> 32,> 32,> 32,1.88
O=C(NC1CCN(Cc2ccccc2)CC1)c1cc(-c2ccncc2)nc2ccc(Cl)cc12,92,16.2,1.02,4.03,> 32,3.51,4.59
c1ccc(-c2ccc(-c3nc4ccccc4[nH]3)cc2)cc1,52,> 32,1.07,> 32,> 32,> 32,> 32
CC(Oc1ccc(NC(=O)c2cccs2)cc1)C(=O)c1ccc(Cl)cc1 (stereo not given),87,> 32,1.03,15.5,> 32,10.3,15.4
Cc1[nH]c(-c2ccc(F)cc2)cc1C(=O)NC1CCN(Cc2ccccc2)CC1,99,> 32,0.771,6.26,> 32,4.03,> 32
COc1ccc(CNC(=O)c2cc3c(=O)n4ccccc4nc3n(CCc3ccccc3)c2=N)cc1,95,13.6,1.06,11.9,14.7,3.15,4.91
CCOc1cc(Br)c(C(C)NC(=O)c2cccc(OC)c2)cc1OCC (stereo not given),96,> 32,1.43,> 32,> 32,> 32,> 32
CC(C)=CCN1CCC(C(=O)Nc2ccc(-c3nc4ccccc4[nH]3)cc2)CC1,96,> 32,1.16,5.04,> 32,2.34,23
O=C(NCCCN1CCC(N2CCCCC2)CC1)C1=Cc2cc(Br)ccc2OC1,99,4.03,0.563,0.805,12,0.859,4.22
Fc1ccc2[nH]c3c(NCCCN4CCOCC4)ncnc3c2c1,98,> 32,0.345,> 32,> 32,18.3,> 32
Cc1ccc(Cl)cc1N1CCN(CCCNC(=O)C2CCN(c3nc4ccccc4[nH]3)CC2)CC1,97,4,1.33,1.31,14.5,1.01,3.74
COc1ccc(C(=O)Nc2nonc2-c2ccc(OC)c(OC)c2)cc1Cl,92,> 32,0.516,> 32,> 32,> 32,> 32
O=C(Nc1ccc(CN2CCOCC2)cc1)c1ccc(-c2cc(Cl)ccc2Cl)o1,97,25.4,1.95,14.9,17.4,4.44,12.1
CCOc1ccc(C2N(C)c3ccccc3N2C)cc1,72,25.4,0.941,> 32,15.5,> 32,3.1
FC(F)(F)c1cccc(CNC2CCN(CCc3ccccc3)CC2)c1,96,16.6,0.685,2.73,> 32,1.31,15.7
O=C(Nc1ccc(-c2nc3ccccc3[nH]2)cc1)c1ccc(Cl)c(Cl)c1,97,> 32,0.838,> 32,> 32,> 32,> 32

Compound,inhibition at 5 µM (Plasmodium falciparum [1]) [%],IC50 (Leishmania infantum) [µM],EC50 (Plasmodium falciparum [2]) [µM],IC50 [3] [µM],IC50 [4] [µM],IC50 [5] [µM],IC50 (Trypanosoma cruzi) [µM]
CCOc1cc(Cl)c(C(C)NC(=O)c2ccccc2)cc1OCC (stereo not given),96,> 32,1.37,> 32,> 32,> 32,> 32
COc1ccc(C2NCCc3c2[nH]c2ccccc32)cc1CN1CCN(c2ccc(F)cc2)CC1 (stereo not given),97,1.19,0.934,2.78,3.94,0.246,2.75
O=C(Nc1cccc(-c2nc3ccccc3[nH]2)c1)c1cccc(NC(=O)c2ccco2)c1,95,> 32,0.745,> 32,> 32,> 32,> 32
O=C(NC1CCN(Cc2ccccc2)CC1)c1cc(-c2cccnc2)nc2ccc(Cl)cc12,91,> 32,1.01,14,> 32,3.83,> 32
O=C(Nc1ccc(CN2CCOCC2)cc1)c1ccc(-c2ccc(Br)cc2)o1,96,18.4,1.36,3.61,4.81,3.86,11
Nc1ccc(-c2nc3cc(Oc4ccc(Oc5ccc6[nH]c(-c7ccc(N)cc7)nc6c5)cc4)ccc3[nH]2)cc1,97,4.06,0.842,1.94,8,2.74,3.91
CCOc1ccc(-n2cc(-c3ccccc3)c3c(SCc4cc(C)ccc4C)ncnc32)cc1,97,> 32,1.71,> 32,> 32,25,> 32
Cc1cc(NC(=O)c2ccc(-c3ccccc3)cc2)no1,95,> 32,0.693,> 32,> 32,> 32,> 32
COc1cccc(-c2nn(C)c3sc(C(=O)NCCN4CCN(c5ccccc5F)CC4)cc23)c1,91,> 32,1.3,16,> 32,5.31,> 32
COc1cc(-c2nc(-c3ccccc3)c(-c3ccccc3)[nH]2)cc(OC)c1O,97,25.4,1.18,11.9,> 32,9.75,28.3
O=C(Nc1ccc(N2CCN(Cc3ccccc3)CC2)cc1)c1cccs1,59,> 32,1.07,14.6,> 32,9.69,> 32
O=C(Nc1ccc(-c2nc3cc4ccccc4cc3[nH]2)cc1)c1cccc(Br)c1,93,> 32,0.45,> 32,> 32,> 32,> 32
Cc1cc(C)c2nc(N3CCC(C(=O)NCCCN4CCC(N5CCCCC5)CC4)CC3)sc2c1,98,4.06,0.697,0.22,4.25,< 0.125,0.85
O=C(Cc1ccccc1)NC(c1ccc(Cl)cc1)c1c(O)ccc2ccccc12 (stereo not given),97,4.76,1.14,4.06,8.22,3.7,3.65
COc1cc(CNCCc2ccc(Cl)cc2)cc(OC)c1O,97,> 32,1.79,15,> 32,12.1,> 32
CCCc1c(CC)c(=N)c2ccccc2n1C,69,> 32,0.242,21,30.6,16.2,0.415
COc1ccc(C(=O)C2CC2c2ccc(Cl)cc2)cc1 (stereo not given),94,> 32,1.06,> 32,> 32,> 32,> 32
O=C(NCC1Cc2cccc(-c3ccncc3)c2O1)c1csc2c1CCCC2 (stereo not given),87,> 32,1.72,16.5,28.5,13.9,5.16
CCOC(=O)c1cnc2c(C)cc(C)cc2c1Nc1ccc(OC)c(OC)c1,96,> 32,0.232,> 32,> 32,> 32,> 32
CCCn1c(=N)c(C(=O)NC2CCCCC2)cc2c(=O)n3cccc(C)c3nc21,96,> 32,1.11,16.1,> 32,8.44,> 32
